Reference: patent publication US20250163384A1, “ORGANOIDS DERIVED FROM HUMAN COLONIC CELLS AND METHODS OF MAKING AND USING THE SAME” (priority 2022, published 2025)

What was measured:
Format in all cases: cell-based, human
[1] = test system: GiLA1 organoid monolayers; assay: Tissue patterning (nodes / cell clusters) in GiLA1 organoid monolayers; details: for speed of node loss / patterning defects: GiLA1 monolayers, ERK activation methods compared
Description: SCREENSTAR 384-well black plates (Grenier #781866) were coated with ice cold Matrigel (CB40230C) diluted 1:40 in Serum-free Advanced-DMEM F12 media (SFM) for 1 hr. Monolayers were prepared using our previously described protocol (Thorne et al., 2018; Sanman et al., 2020). Briefly, cells were removed from 3D Matrigel and resuspended in ice cold SFM and washed three times using ice cold SFM. Organoids were then dissociated by resuspension in Trypsin+10 μM Y-27 for 4 min followed by quenching in DMEM supplemented with 10% FBS and washing. Coating media was removed from 384-well plates and organoids plated at 7000 cells/well after counting using hemocytometer and cultured for 24 hr. Seeding media was then removed and replaced with complete LWRN media and changed daily for 7 days until cultures became confluent and tissue patterning was observed.
(§1) 384-well plates were imaged with fluorescent microscopy on a Nikon Eclipse TI2 automated microscope. For quantification of wave dynamics, organoids were imaged every 10-30 min. Tracking and segmentation of single cells in time lapse images in FIG. 2 was performed using the MATLAB program p53Cinema (Reyes et al., 2019). Analysis of the extracted data was performed in MATLAB. For the ERK activity heat maps in FIG. 3, images of the ERK-KTRmRuby2 and the H2B-iRFP670 were captured every 7 min for 24 hr. For each frame, individual nuclei were segmented using a MATLAB script developed in-house that identifies nuclei based on the H2B-iRFP670 images. The cytoplasmic ERK-KTRmRuby2 signal was obtained by creating a two pixel wide annulus surrounding the nucleus and averaging the intensity. Cells with active ERK were identified as having a mean ERK-KTR cytoplasmic signal>the mean ERK-KTR nuclear signal. The density-based spatial clustering of applications with noise algorithm (dbscan, MATLAB, 2021b) was performed on the centroids of ERK active cells to identify spatial clusters of cells with active ERK. A boundary was drawn around the spatial clusters using the boundary algorithm in MATLAB. The ERK positive regions of each frame were summed up to generate the heat map in MATLAB.
Since ERK waves are largely restricted to the post-mitotic, differentiated compartments in our gut organoid monolayer model, we hypothesized that ERK waves may help regulate the patterning observed in the GiLA1 monolayers by restricting the stem cell compartment. To test this hypothesis, we asked if global activation of ERK activity could disrupt the patterning of the organoid monolayers. a well-established activator of the ERK pathway, phorbol 12-myristate 13-acetate (PMA) was used to acutely activate ERK signaling across the monolayer. […] To determine if nodes re-formed once ERK activity returned to baseline, we treated GiLA1 monolayers with a pulse of 100 nM PMA for 1 min.

ERK = ERK kinase translocation reporter (ERK-KTR) activity in GiLA1 organoid monolayers; details: for time to activation of ERK: GiLA1 monolayers, ERK activation methods compared
Description: 384-well plates were imaged with fluorescent microscopy on a Nikon Eclipse TI2 automated microscope. For quantification of wave dynamics, organoids were imaged every 10-30 min. Tracking and segmentation of single cells in time lapse images in FIG. 2 was performed using the MATLAB program p53Cinema (Reyes et al., 2019). Analysis of the extracted data was performed in MATLAB. For the ERK activity heat maps in FIG. 3, images of the ERK-KTRmRuby2 and the H2B-iRFP670 were captured every 7 min for 24 hr. For each frame, individual nuclei were segmented using a MATLAB script developed in-house that identifies nuclei based on the H2B-iRFP670 images. The cytoplasmic ERK-KTRmRuby2 signal was obtained by creating a two pixel wide annulus surrounding the nucleus and averaging the intensity. Cells with active ERK were identified as having a mean ERK-KTR cytoplasmic signal>the mean ERK-KTR nuclear signal. The density-based spatial clustering of applications with noise algorithm (dbscan, MATLAB, 2021b) was performed on the centroids of ERK active cells to identify spatial clusters of cells with active ERK. A boundary was drawn around the spatial clusters using the boundary algorithm in MATLAB. The ERK positive regions of each frame were summed up to generate the heat map in MATLAB. MAPK/ERK signaling is a critical regulatory pathway involved in maintaining homeostasis of epithelia in the gut (Wei et al., 2020). To assess ERK activity in human organoid monolayers over time, we utilized a well-characterized ERK kinase translocation reporter (ERK-KTR) (Regot et al., 2014). The ERK-KTR utilizes a bipartite nuclear localization signal (NLS) and nuclear export signal (NES) to transform ERK kinase activity into a nuclear to cytoplasmic shuttling event that is easily quantified by microscopy in organoid monolayers (FIG. 3A). We transduced the GiLA1 organoid line with a H2B-iRFP670 nuclear marker and ERK-KTR-mRuby2 reporter to perform nuclear and cytoplasmic segmentation and calculate nuclear-to-cytoplasmic ratios of the ERK-KTR (FIG. 3A, FIG. 3B and FIG. 9A).

[2] = test system: GiLA1 organoid monolayers; assay: Apoptosis-induced ERK waves and cell movement (particle image velocimetry) in GiLA1 organoid monolayers; details: 5 μM Gefitinib (FIG. 3G), after an apoptotic event
Description: as §1, with “The ERK positive regions of each frame were summed up to generate the heat map in MATLAB.” left out
To determine the properties of the ERK waves, about 450 cells were tracked and their ERK activity was assessed over time following an apoptotic event (FIG. 3D, left panel and FIG. 3E). […]

Wnt signaling = assay: TopGFP Wnt reporter in organoid monolayers; details: 3 μM pyrvinium, 72 hr
Description: Organoids were treated with either 3 μM pyrvinium to block Wnt signaling or 10 μM GSK-3 inhibitor to stimulate the Wnt pathway for 72 hr. Cells were fixed and stained for DAPI. Total GFP fluorescence across the monolayer was measured and normalized by mCherry control to obtain TopGFP measurements per condition. Significance between treatment groups was determined by t-test. Scale bar=100 μm.

Structure (SMILES) | loss of patterning (cell clusters) ([1]; 100 nM PMA, by 24 hr post-treatment (FIG. 4D-F)) | speed of node loss / patterning defects [1] | node and ERK-KTR activity after pulse, washout and chase ([1]; PMA pulse 1 min, washout, chase for 24 hr (FIG. 4G bottom)) | nodes after pulse treatment ([1]; pulse of 100 nM PMA for 1 min) | re-formation of nodes after pulse treatment ([1]; pulse of 100 nM PMA for 1 min, by 48 hr (FIG. 4G)) | ERK activity after continuous treatment (ERK; 100 nM PMA, 20-30 min (FIGS. 4B and C)) | time to activation of ERK (ERK) | ERK levels after pulse treatment, later (ERK; pulse of 100 nM PMA for 1 min, after washout) | ERK activation after pulse treatment (ERK; pulse of 100 nM PMA for 1 min, read after 30 min) | ERK waves and tropism towards dying cells [2] | Wnt signaling (TopGFP normalized by mCherry) (Wnt signaling)
CCCCCCCCCCCCCC(=O)O[C@@H]1[C@@H](C)[C@@]2(O)[C@@H](C=C(CO)C[C@]3(O)C(=O)C(C)=C[C@@H]23)[C@@H]2C(C)(C)[C@]12OC(C)=O [PMA, phorbol 12-myristate 13-acetate] | almost complete loss of cell clusters | rapid node loss | node loss and resuppression of ERK activity | node loss | nodes did not re-form | immediate hyperactivated ERK was observed in all cells | within hours | ERK levels returned to normal | ERK activation in all cells | – | –
COc1cc2ncnc(Nc3ccc(F)c(Cl)c3)c2cc1OCCCN1CCOCC1 [Gefitinib] | – | – | – | – | – | – | – | – | – | did not induce ERK waves or display tropism towards dying cells | –
Cc1cc(/C=C/c2ccc3cc(N(C)C)ccc3[n+]2C)c(C)n1-c1ccccc1 [pyrvinium] | – | took days to induce patterning defects | – | – | – | – | within hours | – | – | – | Inhibits Wnt Signaling
